Experiments:
[1] = tested on: bean aphid (Aphis fabae Scop.); test: Bean aphid foliage spray test; type: in vivo; design: key: A: excellent control; B: partial control; C: no control; conditions: 500 parts per million, 24 hour
Experimental: (§1) Suspensions of the test compounds were prepared by dissolving one gram of compound in 50 milliliters of acetone in which had been dissolved 0.1 gram (10 percent of the weight of compound) of an alkylphenoxy polyethoxyethanol surfactant, as an emulsifying or dispersing agent. The resulting solution was mixed into 150 milliliters of water to give roughtly 200 milliliters of a suspension containing the compound in finely divided form. The thus-prepared stock suspension contained 0.5 percent by weight of compound. The test concentrations in parts per million by weight employed in the tests described hereinbelow were obtained by appropriate dilutions of the stock suspension with water. The test procedures were as follows:
BEAN APHID FOLIAGE SPRAY TEST
Adults and nymphal stages of the bean aphid (Aphis fabae Scop.) reared on potted dwarf nasturtium plants at 64°-70° F. and 50-70 per cent relative humidity, constituted the test insects. For testing purposes, the number of aphids per pot was standardized to 100-150 by trimming plants containing excess aphids.
The test compounds were formulated by diluting the stock suspension with water to give a suspension containing 500 parts of test compound per million parts of final formulation.
The potted plants (one pot per compound tested) infested with 100-150 aphids, were placed on a revolving turntable and sprayed with […] of test compound formulation by use of a DeVilbiss spray gun set at 40 psig. air pressure. This application, which lasted 25 seconds, was sufficient to wet the plants to run-off. As a control, 100-110 milliliters of a water-acetone-emulsifier solution containing no test compound were also sprayed on infested plants. After spraying, the pots were placed on their sides on a sheet of white standard mimeograph paper which had been previously ruled to facilitate counting. Temperature and humidity in the test room during the 24 hour holding period were 65°-70° F. and 50-70 per cent, respectively. Aphids which fell onto the paper and were unable to remain standing after being uprighted were considered dead. Aphids remaning on the plants were observed closely for movement and those which were unable to move the length of the body upon stimulation by prodding were considered dead. Per cent mortality was recorded for various concentration levels.
(§2) In these tests the pesticidal activity of the compounds against aphid, mite, Southern Armyworm, Mexican Bean Beetle, nematodes and house fly was rated as follows: […]

[2] = tested on: two-spotted mite (Tetranychus urticae Koch); test: Mite foliage spray test; type: in vivo; design: key: A: excellent control; B: partial control; C: no control; conditions: 500 parts per million, six days
Experimental: as §1
Adults and nymphal stages of the two-spotted mite (Tetranychus urticae Koch), reared on Tendergreen bean plants at 80±5 per cent relative humidity, were the test organisms. Infested leaves from a stock culture were placed on the primary leaves of two bean plants six to eight inches in height, growing in a two-and-a-half inch clay pot. 150-200 Mites, a sufficient number for testing, transferred from the excised leaves to the fresh plants in a period of twenty four hours. Following the twenty four hour transfer period, the excised leaves were removed from the infested plants. The test compounds were formulated by diluting the stock suspension with water to give a suspension containing 500 parts of test compound per million parts of final formulation. The potted plants (one pot per compound) were placed on a revolving turntable and sprayed with 100-110 milliliters of test compound formulation by use of a DeVilbiss spray gun set at 40 psig. air pressure. This application, which lasted 25 seconds, was sufficient to wet the plants to run-off. As a control, 100-110 milliliteres of a water solution containing acetone and emulsifier in the same concentrations as the test compound formulation, but containing no test compound, were also sprayed on infested plants. The sprayed plants were held at 80±5 per cent relative humidity for six days, after which a mortality count of motile forms was made. Microscopic examination for motile forms was made on the leaves of the test plants. Any individual which was capable of locomotion upon prodding was considered living.
as §2

[3] = tested on: southern armyworm (Prodenia eridania, (Cram.)); test: Southern armyworm leaf spray test; type: in vivo; design: key: A: excellent control; B: partial control; C: no control; conditions: 500 parts per million, larvae, three days
Experimental: as §1
SOUTHERN ARMYWORM LEAF SPRAY TEST
Larvae of the southern armyworm (Prodenia eridania, (Cram.)), reared on Tendergreen bean plants at a temperature of 80±5° F. and a relative humidity of 50±5 per cent, constituted the test insects.
The test compounds were formulated by diluting the stock suspension with water to give a suspension containing 500 parts of test compound per million parts of final formulation. Potted Tendergreen bean plants of standard height and age were placed on a revolving turntable and sprayed with 100-110 milliliters of test compound formulation by use of a DeVilbiss spray gun set at 10 psig air pressure. This application, which lasted 25 seconds, was sufficient to wet plants to run-off. As a control, 100-110 milliliters of a water-acetone-emulsifier solution containing no test compound were also sprayed on infested plants. When dry, the paired leaves were separated and each one was placed in a 9 centimeter Petri dish lined with moistened filter paper. Five randomly selected larvae were introduced into each dish and the dishes were closed. The closed dishes were labeled and held at 80°-85° F. for three days. Although the larvae could easily consume the whole leaf within twenty-four hours, no more food was added. Larvae which were unable to move the length of the body, even upon stimulation by prodding, were considered dead. Per cent mortality was recorded for various concentration levels.
as §2

[4] = tested on: Mexican bean beetle (Epilachna varivestis, Muls.); test: Mexican bean beetle leaf spray test; type: in vivo; design: key: A: excellent control; B: partial control; C: no control; conditions: 500 parts per million, fourth instar larvae, three days
Experimental: as §1
MEXICAN BEAN BEETLE LEAF SPRAY TEST
Fourth instar larvae of the Mexican bean beetle (Epilachna varivestis, Muls.), reared on Tendergreen bean plants at a temperature of 80±5° F. and 50±5 per cent relative humidity, were the test insects.
The test compounds were formulated by diluting the stock suspension with water to give a suspension containing 500 parts of test compound per million parts of final formulation. Potted Tendergreen bean plants of standard height and age were placed on a revolving turntable and sprayed with 100-110 milliliters of test compound formulation by use of a DeVilbiss spray gun set at 10 psig air pressure. This application, which lasted 25 seconds, was sufficient to wet plants to run-off. As a control 100-110 milliliters of a water-acetone-emulsifier solution containing no test compound were also sprayed on infested plants. When dry, the paired leaves were separated and each was placed in a 9 centimeter Petri dish lined with moistened filter paper. Five randomly selected larvae were introduced into each dish, and the dishes were closed. The closed dishes were labeled and held at a temperature of 80±5° F. for three days. Although the larvae could easily consume the leaf within 24 to 48 hours, no more food was added. Larvae which were unable to move the length of the body, even upon stimulation, were considered dead.
as §2

[5] = tested on: house flies (Musca domestica, L.); test: Fly bait test; type: in vivo; design: key: A: excellent control; B: partial control; C: no control; conditions: 500 parts per million in sugar bait; twenty four hours
Experimental: as §1
Four to six day old adult house flies (Musca domestica, L.), reared according to the specifications of the Chemical Specialities Manufacturing Association (Blue Book, McNair-Dorland Co., N. Y. 1954; pages 243-244, 261) under controlled conditions of 80±5° F. and 50±5 per cent relative humidity, were the test insects. The flies were immobilized by anesthetizing with carbon dioxide and twenty five immobilized individuals, males and females, were transferred to a cage consisting of a standard food strainer about five inches in diameter which was inverted over a wrapping-paper-covered surface. The test compounds were formulated by diluting the stock suspension with a 10 per cent (by weight) sugar solution to give a suspension containing 500 parts of test compound per million parts of final formulation, by weight. Ten milliliters of the test formulation were added to a souffle cup containing a one-inch square of an absorbent cotton pad. This bait cup was introduced and centered on the blotting paper under the food strainer prior to admitting the anesthetized flies. The caged flies were allowed to feed on the bait for twenty four hours, at a temperature of 80±5° F. and the relative humidity of 50±5 per cent.
as §2

[6] = tested on: root-knot nematode, Meloidogyne incognita var. acrita; test: Nematocide test; type: in vivo; design: key: A: excellent control; B: partial control; C: no control; conditions: 3.33 m.g. per jar; galling of cucumber roots rated after approximately 3 weeks
Experimental: The test organism used was the infective migratory larvae of the root-knot nematode, Meloidogyne incognita var. acrita, reared in the greenhouse on roots of cucumber plants. Infected plants were removed from the culture, and the roots are chopped very finely. A small amount of this inoculum was added to a pint jar containing approximately 180 cc. of soil. The jars were capped and incubated for one week at room temperature. During this period eggs of the nematode were hatched, and the larval forms migrated into the soil.
Ten ml. of the test formulation were added to each of the two jars for each dosage tested. Following the addition of chemical, the jars were capped, and the contents thoroughly mixed on a ball mill for 5 minutes.
The test compounds were formulated by a standard procedure of solution in acetone addition of an emulsifier, and dilution with water. Primary screening tests were conducted at 3.33 m.g. of the test compound per jar.
The jars were left capped at room temperature for a period of 48 hours, and the contents then transferred to 3 inch pots. Subsequently, the pots were seeded to cucumber as an indicator crop and placed in the greenhouse where they were cared for in the normal fashion for approximately 3 weeks.
The cucumber plants were then taken from the pots, the soil removed from the roots, and the amount of galling visually rated.
as §2

[7] = Acute oral (peroral) toxicity to mammals; conditions: in vivo, rat, mortality rate of 50 percent
Experimental: Certain of these compositions were also evaluated to determine their peroral toxicity to mammals. The animal selected for this experiment was the rat. The test results obtained are expressed in terms of the number of milligrams of compositions per kilogram of weight of the animal required to achieve a mortality rate of 50 percent (LD50).

## CNC(=O)ON=C1OCC(C)(C)N(C)C1=O
[1]
  Biological Activity: Aphid: A
[2]
  Biological Activity: Mite: A
[3]
  Biological Activity: Southern Army Worm: C
[4]
  Biological Activity: Bean Beetle: A
[5]
  Biological Activity: Housefly: A
[6]
  Biological Activity: Nematode: A
[7]
  LD50: 126 mg/kg

## CCC1COC(=NOC(=O)NC)C(=O)N1C (centres unmarked)
[1]
  Biological Activity: Aphid: A
[2]
  Biological Activity: Mite: A
[3]
  Biological Activity: Southern Army Worm: A
[4]
  Biological Activity: Bean Beetle: C
[5]
  Biological Activity: Housefly: A
[6]
  Biological Activity: Nematode: C
[7]
  LD50: 23.8 mg/kg

## CCC1COC(=NOC(=O)N(C)SC(Cl)(Cl)Cl)C(=O)N1C (centres unmarked)
[1]
  Biological Activity: Aphid: A
[2]
  Biological Activity: Mite: A
[3]
  Biological Activity: Southern Army Worm: C
[4]
  Biological Activity: Bean Beetle: A
[5]
  Biological Activity: Housefly: A
[6]
  Biological Activity: Nematode: A

## CCN1CCOC(=NOC(=O)NC)C1=O
[1]
  Biological Activity: Aphid: A
[2]
  Biological Activity: Mite: A
[3]
  Biological Activity: Southern Army Worm: C
[4]
  Biological Activity: Bean Beetle: C
[5]
  Biological Activity: Housefly: A
[6]
  Biological Activity: Nematode: C

## CNC(=O)ON=C1OCCN(C(C)C)C1=O
[1]
  Biological Activity: Aphid: A
[2]
  Biological Activity: Mite: C
[3]
  Biological Activity: Southern Army Worm: C
[4]
  Biological Activity: Bean Beetle: C
[5]
  Biological Activity: Housefly: A

## CCCN1CCOC(=NOC(=O)NC)C1=O
[1]
  Biological Activity: Aphid: A
[2]
  Biological Activity: Mite: A
[3]
  Biological Activity: Southern Army Worm: A
[4]
  Biological Activity: Bean Beetle: B
[5]
  Biological Activity: Housefly: A
[6]
  Biological Activity: Nematode: C

## CNC(=O)ON=C1OC(C)CN(C)C1=O (centres unmarked) [2-Methylcarbamoyloximino-4,-6-dimethyltetrahydro-1,4-oxazin-3-one]
[1]
  Biological Activity: Aphid: A
[2]
  Biological Activity: Mite: A
[3]
  Biological Activity: Southern Army Worm: A
[4]
  Biological Activity: Bean Beetle: A
[5]
  Biological Activity: Housefly: A
[6]
  Biological Activity: Nematode: A

## CNC(=O)ON=C1OCCN(C)C1=O [2-Methylcarbamoyloximino-4-methyltetrahydro1,4-oxazin-3-one]
[1]
  Biological Activity: Aphid: A
[2]
  Biological Activity: Mite: A
[3]
  Biological Activity: Southern Army Worm: A
[4]
  Biological Activity: Bean Beetle: A
[5]
  Biological Activity: Housefly: A
[6]
  Biological Activity: Nematode: A
[7]
  LD50: 343 mg/kg

## CN(SC(Cl)(Cl)Cl)C(=O)ON=C1OCC(C)(C)N(C)C1=O [2-[N-Trichloromethanesulfenyl-N-methyl/carbamoyloximino]-4,5,5-trimethyltetrahydro, -1,4-oxazin-3-one]
[1]
  Biological Activity: Aphid: A
[2]
  Biological Activity: Mite: A
[3]
  Biological Activity: Southern Army Worm: C
[4]
  Biological Activity: Bean Beetle: B
[5]
  Biological Activity: Housefly: A
[7]
  LD50: 794 mg/kg

## CN1CCOC(=NOC(=O)N(C)SC(Cl)(Cl)Cl)C1=O [2-[N-Trichloromethanesulfenyl-N-methylcarbamoyloximino]-4-methyltetrahydro-1,4-oxazin-3-one]
[1]
  Biological Activity: Aphid: A
[2]
  Biological Activity: Mite: B
[3]
  Biological Activity: Southern Army Worm: C
[4]
  Biological Activity: Bean Beetle: A
[5]
  Biological Activity: Housefly: A
[6]
  Biological Activity: Nematode: A

Source: patent US4235902A, “Pesticidal carbamate esters of 5-oximino-1,3-oxazolidin-4-ones” (priority 1976, dated 1980)
